The source of these data is PubChem BioAssay (NCI).

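Each compound was tested at five concentrations against cells in 96-well plates for 48 hours. Here, GI50 denotes the concentration required for 50% inhibition of growth. Definition used: TGI = concentration required for complete inhibition of growth.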

Among the test systems are U251 CNS; HOP-62 NSCLC; SN12C renal; IGROV1 ovarian; SK-MEL-5 melanoma; LOX IMVI melanoma; UACC-62 melanoma; HOP-92 NSCLC; OVCAR-8 ovarian; SNB-75 CNS.
Common to all, as to experiment: NCI anticancer screen, dose series, 48 h

For `COc1cc2cc3c4c(cc(OC)c(OC)c4c2cc1OC)CCN3C(=O)CCCC(=O)O`, the TGI in the experiment with U251 CNS, in the experiment on HOP-62 NSCLC, in the experiment with SN12C renal, with IGROV1 ovarian, in the experiment with SK-MEL-5 melanoma and with LOX IMVI melanoma was more than 100 µM in each case. For the same compound, the TGI in the experiment with UACC-62 melanoma and in the experiment on HOP-92 NSCLC was more than 100 µM in each case.

As for `O=C1C=C2S[C@H]3C[C@]2(C=C1Br)c1c(c(O)c2c4c1=NCCC=4C=N2)N3`, the TGI is 1.56 µM in the experiment with OVCAR-8 ovarian; 3.17 µM with U251 CNS; 2.92 µM in the experiment with SNB-75 CNS; 2.48 µM in the experiment on SN12C renal; 2.92 µM in the experiment on IGROV1 ovarian; 2.38 µM in the experiment on SK-MEL-5 melanoma. The TGI in the experiment on LOX IMVI melanoma was 1.27 µM; with UACC-62 melanoma it was 1.23 µM; with HOP-92 NSCLC, 2.28 µM.

`Cc1ccc(/C=C(\C#N)n2nnc3cc(Cl)c(Cl)cc32)cc1`: the GI50 with OVCAR-8 ovarian was 2.87 µM; in the experiment with SNB-75 CNS, 1.57 µM; with HOP-62 NSCLC, 2.6 µM; with SN12C renal, 3.13 µM; in the experiment on IGROV1 ovarian, 2.26 µM; in the experiment on SK-MEL-5 melanoma, 2.44 µM. The figures for the GI50 in the experiment on LOX IMVI melanoma and in the experiment on HOP-92 NSCLC were 1.81 µM and 1.61 µM, respectively. The TGI in the experiment with OVCAR-8 ovarian was more than 100 µM; in the experiment on SNB-75 CNS, 9.74 µM; in the experiment with HOP-62 NSCLC, more than 100 µM; in the experiment with SN12C renal, 13.1 µM; in the experiment on IGROV1 ovarian, 6.48 µM; in the experiment on SK-MEL-5 melanoma, 6.55 µM. In addition, the TGI with LOX IMVI melanoma is 3.65 µM; in the experiment on HOP-92 NSCLC, 9.65 µM.

For the compound `COc1cccc(Nc2nc(NNC(=O)Cc3ccccc3)nc(NNC(=O)c3ccncc3)n2)c1`, the GI50 in the experiment on OVCAR-8 ovarian, in the experiment with U251 CNS, with HOP-62 NSCLC, with SN12C renal, with IGROV1 ovarian and with SK-MEL-5 melanoma was more than 100 µM in each case. Besides, in the experiment with UACC-62 melanoma, the GI50 is 36 µM. Also, the TGI in the experiment on OVCAR-8 ovarian, in the experiment on U251 CNS, with SNB-75 CNS, in the experiment on HOP-62 NSCLC, in the experiment with SN12C renal and in the experiment with IGROV1 ovarian was more than 100 µM throughout. Moreover, the TGI in the experiment on SK-MEL-5 melanoma, in the experiment with LOX IMVI melanoma and with UACC-62 melanoma was more than 100 µM in each case.

Consider `CN(C)c1cccc(-c2cc(=O)c3ccccc3[nH]2)c1`, for which the TGI in the experiment with OVCAR-8 ovarian, with U251 CNS, in the experiment on HOP-62 NSCLC, with SN12C renal, in the experiment on IGROV1 ovarian and in the experiment with LOX IMVI melanoma was more than 100 µM throughout. In the experiment with UACC-62 melanoma, this compound registered a TGI of more than 100 µM.

Turning to `O=C1CCCCC/C=C2/CC[C@H](Sc3ccccc3)[C@@H]12`, the TGI with OVCAR-8 ovarian, in the experiment with U251 CNS, in the experiment on SNB-75 CNS, in the experiment with HOP-62 NSCLC, with SN12C renal and with SK-MEL-5 melanoma was more than 100 µM each time. In addition, the TGI with LOX IMVI melanoma and in the experiment on UACC-62 melanoma was more than 100 µM each time.

As for `O=C(NCCCN1CCN(CCCNC(=O)c2cnc3ccccc3n2)CC1)c1cnc2ccccc2n1`, the TGI in the experiment on OVCAR-8 ovarian, with U251 CNS, in the experiment on SNB-75 CNS, in the experiment on HOP-62 NSCLC, with SN12C renal and in the experiment on IGROV1 ovarian was more than 100 µM throughout. The TGI in the experiment with SK-MEL-5 melanoma, with LOX IMVI melanoma and in the experiment on UACC-62 melanoma was more than 100 µM each time.

As to `C/C(=N/O)C1CC=C(S(=O)(=O)c2ccccc2)C1` (configuration not stated), the TGI in the experiment on OVCAR-8 ovarian, with U251 CNS, in the experiment with SNB-75 CNS, in the experiment with HOP-62 NSCLC, with SN12C renal and in the experiment on IGROV1 ovarian was more than 100 µM each time. Also, the TGI in the experiment on LOX IMVI melanoma and with HOP-92 NSCLC was more than 100 µM in each case.

As to `CN(C)CCNC(=O)c1cccc2nc3ccc4ccccc4c3nc12`, the TGI with OVCAR-8 ovarian was found to be 0.284 µM; in the experiment with U251 CNS it was 0.665 µM; in the experiment with SNB-75 CNS, 0.517 µM; in the experiment on HOP-62 NSCLC, 0.352 µM; in the experiment on SN12C renal, 0.342 µM; in the experiment on SK-MEL-5 melanoma it was 0.236 µM. The TGI is 0.228 µM in the experiment with LOX IMVI melanoma, 0.256 µM in the experiment with UACC-62 melanoma and 0.392 µM with HOP-92 NSCLC.

For `CC(=O)CC(=O)CCCC(=O)Nc1ccc(Cl)cc1C`, the TGI in the experiment on OVCAR-8 ovarian, in the experiment on U251 CNS, in the experiment with SN12C renal, in the experiment on IGROV1 ovarian, in the experiment on SK-MEL-5 melanoma and with LOX IMVI melanoma was more than 100 µM throughout. Also, the TGI with UACC-62 melanoma and in the experiment on HOP-92 NSCLC was more than 100 µM each time.

On to `CCc1cccc(C(C)CC)c1N=C(NC(=O)c1ccccc1C(=O)NC(=Nc1c(CC)cccc1C(C)CC)SC)SC` (configuration not stated), for which the TGI is more than 100 µM with OVCAR-8 ovarian; 79.5 µM with U251 CNS; more than 100 µM in the experiment with HOP-62 NSCLC; more than 100 µM in the experiment with SN12C renal; more than 100 µM in the experiment with IGROV1 ovarian; more than 100 µM with LOX IMVI melanoma. The TGI is 53.5 µM in the experiment with UACC-62 melanoma and 39.2 µM with HOP-92 NSCLC.

For the compound `N=C(N)n1ncc(Cl)c(Cl)c1=O`, the TGI was 4.55 µM in the experiment with OVCAR-8 ovarian; 20 µM in the experiment on U251 CNS; 9.24 µM in the experiment on SNB-75 CNS; 8.44 µM in the experiment on SN12C renal; 28.7 µM in the experiment with IGROV1 ovarian; 15.2 µM in the experiment on SK-MEL-5 melanoma. In addition, the TGI turned out to be 5.76 µM with UACC-62 melanoma and 4.42 µM with HOP-92 NSCLC.

In the case of `CCOC(=O)CC(=O)ON(C)C(=O)Cc1ccccc1`, the TGI with OVCAR-8 ovarian, in the experiment on U251 CNS, in the experiment with HOP-62 NSCLC, in the experiment with SN12C renal, with IGROV1 ovarian and with SK-MEL-5 melanoma was more than 100 µM throughout. Also, the TGI with LOX IMVI melanoma and with UACC-62 melanoma was more than 100 µM each time.
